Measured values taken from patent US11406644B2, “Tropomyosin-related kinase (TRK) inhibitors” (Genzyme Corporation, priority 2013, dated 2022).
Counter-ions that a name gives are not always drawn.

Columns and labels:
TrkB = TrkB (Homo sapiens (Human), UniProt Q16620); assay: TrkB activity, off-chip mobility shift assay (LabChip 3000); assay type: biochemical; conditions: 300 pM TrkB, 70 μM ATP (ATP Km)
From the text: (§1) Reagents and consumables were purchased from Sigma Aldrich, Carna Biosciences, or Caliper Life Sciences. All assay reaction conditions for IC50 determinations were within the linear range with respect to time and enzyme concentration. […] The LabChip 3000 separates and measures the fluorescent signal of fluorescein labeled peptide substrate and fluorescein labeled peptide product present in each well. Results are expressed as percent conversion by measuring peak height for both the substrate and product and dividing the product peak height by the sum of peak heights for both substrate and product.

TrkA = TrkA (Homo sapiens (Human), UniProt P04629); assay: TrkA activity, off-chip mobility shift assay (LabChip 3000); assay type: biochemical; conditions: 200 pM TrkA, 55 μM ATP (ATP Km)
From the text: as §1

[1] = system: Male Lewis rats with PGPS knee arthritis; assay: Reactivated peptidoglycan-polysaccharide (PGPS) knee arthritis; assay type: in vivo, rat
From the text: Male Lewis rats were acclimated to the testing facility for 7 days. The rats were housed in 5 per cage in shoe-box polycarbonate cages with wire tops, wood chip bedding and suspended food and water bottles.
On day −21, the male Lewis rats were randomized into treatment groups by body weight. The rats were anesthetized and injected with peptidoglycan-polysaccharide (PGPS) into the right knee to induce PGPS arthritis. Arthritis was reactivated on days 0 and 14 by an IV tail injection of PGPS.
The rats were weighed at baseline on days 0, 4, 14 and 18. Knee thickness was measured by caliper at baseline and on days 0, 2, 4, 14, 16 and 18. Gait analysis occurred on days 0-4 and 14-18, with video recording of selected animals on days 3 and 17. Gait analysis was performed by applying ink to the ventral surface of the foot and documenting weight bearing during movement across paper.
The animals were terminated at day 18. Right knees were removed, trimmed of extraneous tissue, and collected into 10% neutral buffered formalin. After two days in the formalin buffer and three days in 10% formic acid decalcifier, the knees were cut into two approximately equal halves in the frontal plane and processed for paraffin embedding and stained with T. Blue. Histological examinations were subsequently performed for bone resorption, inflammation, pannus and cartilage damage.
Body weights, gait deficiency and caliper measurements were analyzed using a one-way analysis of variance (1-way ANOVA) with Dunnett's multiple comparison post-test. Gait scores were analyzed using a Kruskal-Wallis test (non-parametric ANOVA) with Dunn's multiple comparison post-test. Histopathology scores were analyzed using a Kruskal-Wallis test (non-parametric ANOVA) with Dunn's multiple comparison post-test.

[2] = system: Male Wistar rats with MIA induced osteoarthritis; assay: Monosodium iodoacetate (MIA) induced osteoarthritis; assay type: in vivo, rat; conditions: for MIA/LRS placebo group compared with treated group at day 35: p<0.05
From the text: Male Wistar rats were acclimated to the testing facility for 5 days. The rats were individually housed in micro-isolator shoe-box polycarbonate cages with cob bedding and water bottles. Dry pelleted food of known composition and nutritional components was provided ad libitum
Animals were randomized by treatment type using an online random number generator. Each treatment group was assigned a number, entered into the random number generator, recorded then translated back to the associated treatment. All injections were given in the left leg unless the treatment indicated “Contralateral” in which case the injection was given in the right leg. Both legs were shaved on all animals at the time of the treatment injections to blind the test administrator.
The rats were weighed the day prior to injection with monosodium iodoacetate (MIA), the agent used to induce osteoarthritis in the animals. The day of injection, rats from groups 2-8 received a subcutaneous (SC) dose of buprenorphine at least one hour prior to induction. […] Naïve animals were then placed in recovery. All other animals received an injection of MIA. In animals receiving MIA, the hind leg was flexed and an injection of MIA (25 μL) was injected into the intra-articular space using a 27 gauge ½ Inch Needle. Standard postoperative care was performed (twice daily for 48 hours).
On Day 8 the test article was administered as described above. On Days −1, 7, 14, 21, 28, and 35 post-induction, weight bearing was assessed. A weight bearing scale was utilized using a plexiglass chamber to assess the amount of weight distributed in each hind limb. The animals were acclimated to the chamber for at least 5 minutes prior to testing and the weight distribution was recorded 5 times.
The animals were terminated at day 36. Both stifles were collected from each animal; the skin was removed from the joint and the patella was removed while leaving as much of the fat pad intact with the joint. The stifle was placed in the appropriate cassette with rolled gauze to secure the stifle in the cassette and then placed into 4% Paraformaldehyde. These samples were examined histologically.

[3] = 0.06 mg intra-articular on day −7

Chain of TrkB (Q16620 456-822): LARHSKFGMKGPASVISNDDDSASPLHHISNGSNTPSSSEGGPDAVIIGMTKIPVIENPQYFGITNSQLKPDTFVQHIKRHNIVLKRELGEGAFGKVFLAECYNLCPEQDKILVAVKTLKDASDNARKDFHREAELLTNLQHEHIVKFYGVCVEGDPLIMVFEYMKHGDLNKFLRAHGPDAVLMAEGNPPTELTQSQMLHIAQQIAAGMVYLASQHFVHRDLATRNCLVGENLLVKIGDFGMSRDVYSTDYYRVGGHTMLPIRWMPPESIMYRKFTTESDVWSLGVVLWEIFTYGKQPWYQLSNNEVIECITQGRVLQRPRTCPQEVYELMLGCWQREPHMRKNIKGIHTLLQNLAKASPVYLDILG
Chain of TrkA (P04629 442-796): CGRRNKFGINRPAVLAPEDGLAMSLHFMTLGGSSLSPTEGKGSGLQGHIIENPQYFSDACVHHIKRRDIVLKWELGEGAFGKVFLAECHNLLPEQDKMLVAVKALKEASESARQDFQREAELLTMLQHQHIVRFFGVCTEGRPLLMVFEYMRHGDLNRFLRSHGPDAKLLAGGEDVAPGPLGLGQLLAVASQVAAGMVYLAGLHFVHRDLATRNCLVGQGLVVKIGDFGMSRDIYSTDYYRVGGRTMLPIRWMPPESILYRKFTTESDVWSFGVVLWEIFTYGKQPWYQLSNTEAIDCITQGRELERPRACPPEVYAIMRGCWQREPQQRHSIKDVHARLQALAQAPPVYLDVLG

Compound COc1ccc(COc2ccc(Cn3cnc4cc(-c5cnn(C6CCNCC6)c5)ccc43)cc2OC)cn1 [Ex. 3-5] has an IC50 (TrkB) of 5 nM and an IC50 (TrkA) of 6 nM.

C[C@]12C=CC(=O)C=C1CC[C@H]1[C@@H]3C[C@@H](O)[C@](O)(C(=O)CO)[C@@]3(C)C[C@H](O)[C@@]12F [Triamcinolone, reference compound] was tested, and the “reduction of gait AUC values, each reactivation calculated separately” value [1, 3] was 74-99%, the “reduction of gait AUC values, summed” value [1, 3] was 88-92% and the “reductions in knee caliper AUC” value [1, 3] was 53-106%.

With COc1ccc(COc2ccc(Cn3c(N)nc4cc(-c5cnn(C)c5)cnc43)cc2OC)cc1 [Ex. 3-15, 3-(3-Methoxy-4-((4-methoxybenzyl)oxy)benzyl)-6-(1-methyl-1H-pyrazol-4-yl)-3H-imidazo[4,5-b]pyridin-2-amine] the “knee caliper AUC values” ([1]; 1 mg intra-articular on day −7) was “generally unaffected”, the “reduction of gait AUC values (scores and deficiency), first reactivation” value ([1]; 1 mg intra-articular on day −7) was 92-93% and the “reduction of gait AUC values (scores and deficiency), second reactivation” value ([1]; 1 mg intra-articular on day −7) was 85-86%. For the same compound, the knee caliper measurements ([1]; 1 mg intra-articular on day −7, day 14 (just prior to second reactivation)) was “significantly reduced”, the “reductions in gait deficiency, second reactivation” value ([1]; 1 mg intra-articular on day −7, days 15, 17 and 18) was “significant” and the “gait scores and deficiency, first reactivation” value ([1]; 1 mg intra-articular on day −7, throughout first reactivation) was “significant reductions”. For the same compound, the “gait scores, second reactivation” value ([1]; 1 mg intra-articular on day −7, throughout second reactivation) was “significantly reduced”, the “efficacy (weight bearing)” value ([2]; 10 μg Contralateral injection) was “efficacy at 3 and 4 weeks” and the “efficacy (weight bearing)” value ([2]; 10 μg Ipsilateral injection) was “efficacy was observed at 2 through 4 weeks”. The “efficacy (weight bearing)” value ([2]; 30 μg Contralateral injection) was “efficacy at only the 3 week timepoint”, the “efficacy (weight bearing)” value ([2]; 30 μg Ipsilateral injection) was “effective throughout the four weeks following administration” and the “MIA/LRS placebo group compared with treated group at day 35” value ([2]; 30 μg Ipsilateral) was “significantly worse”. For the same compound, the “systemic pain relief (weight bearing)” value ([2]; 100 μg Contralateral injection, 1-4 weeks) was “did not show systemic pain relief at any timepoint”, the “efficacy (weight bearing)” value ([2]; 100 μg Ipsilateral injection) was “effective throughout the four weeks following administration” and the “MIA/LRS placebo group compared with treated group at day 35” value ([2]; 100 μg Ipsilateral) was “significantly worse”. The “body weight results, adverse observations due to treatment” value ([2]; intra-articular 10-100 μg on day 8) was “No adverse observations” and the “histopathology of knee joint, adverse changes” value ([2]; stifles collected at day 36) was “no adverse changes”.

COc1ccc(-c2cnc3c(c2)ncn3Cc2ccc(OC(C)c3ccc(OC)nc3)c(OC)c2)cn1 (centres unmarked) [Ex. 3-58-2, 3-(3-methoxy-4-(1-(6-methoxypyridin-3-yl)ethoxy)benzyl)-6-(6-methoxypyridin-3-yl)-3H-imidazo[4,5-b]pyridine formate] showed an IC50 (TrkB) of 610 nM.
